# Legend:
# S. cerevisiae = assay: Chronological lifespan of yeast, outgrowth method (Bioscreen C); assay type: cell-based; conditions: FIG. 4
# Procedure: Lifespan was measured using the outgrowth method described by Murakami, C. and Kaeberlein, M., (2009) J. Vis. Exp, 27. Briefly, chronological lifespan of yeast refers to the profile of viability of an ageing yeast culture over time. To measure this a yeast culture is grown in liquid media until the glucose carbon source is exhausted and the cells stop dividing. At this point the proportion of cells which are alive and able to divide is measured by observing the outgrowth characteristics of a fresh inoculate of the ageing culture using a Bioscreen™ C machine (Oy Growth Curves Ab Ltd, Finland). Viabilities at various time points are compared to determine the chronological lifespan of the culture.
# C. elegans = C. elegans lifespan, percentage of living worms over time; assay type: in vivo; conditions: FIG. 5
# Procedure: FK-506 was added to C. elegans during the timed egg laying stage and lifespan was measured as described in Sutphin, G. L., and Kaeberlein, M., (2009) J. Vis. Exp, 27. Briefly this method comprises synchronising a population of worms and measuring the percentage of living worms at a range of time points, scoring live worms by their ability to respond to physical stimulus.
# [1] = test system: MRC5 human fibroblast cell line; assay: Cell division rate / replicative lifespan of MRC5 fibroblasts; assay type: cell-based
# Procedure: The cell division rate was measured using the method of Fairweather, D. S., M. Fox, and G. P. Margison, (1987), Exp Cell Res, 168(1): p. 153-9. Briefly, the replicative lifespan of MRC5 cells are measured by growing them on the surface of dishes until the reach confluencey whereupon they are split at a 1:2 ratio (i.e. diluted 1 in 2). The number of times the culture is split is equal to that of the number of divisions the cells are able to undertake which is the cultures replicative lifespan. MRC5 cells are only able to divide a finite number of times, and as they reach the end of their life the time they take to undergo cell division increases. In this instance the rate of cell division is used as a measure of age.
compound,measurement,setting,value
"C=CC[C@@H]1/C=C(\C)C[C@H](C)C[C@H](OC)[C@H]2O[C@@](O)(C(=O)C(=O)N3CCCC[C@H]3C(=O)O[C@H](/C(C)=C/[C@@H]3CC[C@@H](O)[C@H](OC)C3)[C@H](C)[C@@H](O)CC1=O)[C@H](C)C[C@@H]2OC [FK-506, fujimycin]",effect on the chronological lifespan of the cells compared to the control,S. cerevisiae; 0.1 ng/ml in the culture medium,no significant effect
same,effect on the median lifespan of the yeast cells compared to the control,S. cerevisiae; 1 ng/ml or more in the culture medium,significant effect increasing the median lifespan
same,lifespan of C. elegans,C. elegans; added during the timed egg laying stage,prolongs the lifespan of C. elegans in a dose dependent manner
same,viability of the organisms (chronological lifespan),C. elegans; addition of 4μ/ml,significant increase in the viability
same,age dependent reduction in cell division rate,"[1]; MRC5 cells, FIG. 6",appears to reverse age dependent reduction in cell division rate
same,division time compared to a control having no FK-506 added,"[1]; MRC5 cells, addition after 39 divisions",reduction of the division time
same,toxicity to the cells,[1]; higher concentrations,becomes toxic to the cells

# Source: US20120136046A1, “METHOD OF TREATING AGE RELATED DISORDERS” (Chronos Therapeutics Limited, priority 2009, published 2012)
